Data: PMC7473772 (eLife, 2020)
Several values for one entry are separate records, joined by “and”; a condition that tells them apart may be missing. Equal entries are not always repeated. Structures can show the parent of a compound that is named as a salt. Where two headings read alike, the source gives them in different places.

How the values were obtained:
TbAQP2/HAPT1 = TbAQP2/HAPT1 (Trypanosoma brucei brucei, UniProt Q6ZXT3); assay: cell-based; assay type: cell-based
s427WT bloodstream forms = assay type: cell-based, Trypanosoma brucei brucei
[1] = Gibbs free energy of binding to HAPT
[2] = NI/NE with the concentration tested, read-out: HAPT Ki, AVG

TbAQP2/HAPT1, sequence (Q6ZXT3 whole entry): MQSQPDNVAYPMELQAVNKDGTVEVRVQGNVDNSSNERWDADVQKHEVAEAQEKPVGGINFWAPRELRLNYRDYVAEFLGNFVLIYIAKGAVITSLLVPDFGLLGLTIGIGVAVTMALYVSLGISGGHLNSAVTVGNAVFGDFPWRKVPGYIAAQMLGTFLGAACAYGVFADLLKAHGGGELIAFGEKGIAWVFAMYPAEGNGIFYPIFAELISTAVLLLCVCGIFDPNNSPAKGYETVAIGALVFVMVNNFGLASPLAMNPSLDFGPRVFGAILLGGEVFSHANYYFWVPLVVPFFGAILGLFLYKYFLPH

Row | SMILES | ΔG0 (TbAQP2/HAPT1) | δ(ΔG^0) PMD (TbAQP2/HAPT1) | Ki (TbAQP2/HAPT1; Ki) | further results
1 | COc1cc(/C=C/C(=O)CC(=O)/C=C/c2ccc(O)c(OC)c2)ccc1O [curcumin] | -4.64 kcal/mol |  |  | Ki (TbAQP2/HAPT1): failed to inhibit; δ(ΔG0) (TbAQP2/HAPT1): 5.54 kcal/mol; Ki (TbAQP2/HAPT1; HAPT Ki, AVG): 398 µM
2 | N=C(N)c1ccc(-c2ccc(-c3ccc(-c4ccc(C(=N)N)cc4)o3)o2)cc1 [DB914] | -9.73 kcal/mol | 0.43 kcal/mol | 0.073 ± 0.013 µM | 
3 | O=C(CCc1ccc(O)cc1)c1c(O)cc(O)cc1O [Phloretin] | -7.84 kcal/mol |  | 1.76 µM | δ(ΔG0) (TbAQP2/HAPT1): 2.32 kcal/mol
4 | N=C(N)NCCCCCCCCCCN=C(N)N.O=S(=O)(O)O [Synthalin sulphate] |  |  |  | ΔG0 (TbAQP2/HAPT1; [1]): -4.88 kcal/mol; Ki (TbAQP2/HAPT1; [2]): 270 µM; δ(ΔG0) (TbAQP2/HAPT1; relative to pentamidine (0)): 5.31 kcal/mol
5 | N=C(N)c1ccc(-c2csc(-c3ccc(C(=N)N)cc3)c2)cc1 [DB1077, 4,4'-(thiophene-2,4-diyl) dibenzimidamide dihydrochloride] | -6.62 kcal/mol | 3.54 kcal/mol | 13.8 ± 3.1 µM | 
6 | N=C(N)c1ccc(OCCCCCCCCOc2ccc(C(=N)N)cc2)cc1 [Octamidine] | -7.72 kcal/mol | 2.44 kcal/mol | 2.16 ± 0.48 µM | 
7 | N=C(N)c1ccc(-c2ccc(-c3ccc(C(=N)N)cn3)o2)cc1 [DB820] |  |  |  | ΔG0 (TbAQP2/HAPT1; [1]): -5.95 kcal/mol; Ki (TbAQP2/HAPT1; [2]): 43.4 µM; δ(ΔG0) (TbAQP2/HAPT1; relative to pentamidine (0)): 4.23 kcal/mol
8 | Cl.Cl.c1cc(-c2ccc(-c3ccc(CCC4=NCCN4)cc3)o2)ccc1CCC1=NCCN1 [DB1062, 2,5-bis(4-(2-(4,5-dihydro-1H-imidazol-2-yl)ethyl)phenyl) furan dihydrochloride] | -5.76 kcal/mol | 4.4 kcal/mol | 59.6 ± 11.2 µM | 
9 | N=C(N)c1cccc(OCCCCCOc2cccc(C(=N)N)c2)c1 [Meta-pentamidine RT40] | -5.71 kcal/mol |  |  | δ(ΔG0) (TbAQP2/HAPT1): 4.45 kcal/mol; Ki (TbAQP2/HAPT1; HAPT Ki, AVG): 64.2 µM
10 | N=C(N)c1ccc(OCCCCCCCCOc2ccc(C(=N)N)cc2)cc1 [Chainlength 8] |  |  |  | Ki (TbAQP2/HAPT1; Ki value, Mean): 2.2 µM
11 | N=C(N)c1ccc(O)cc1 [4-hydroxybenzamidine] | -3.47 kcal/mol | 6.72 kcal/mol | 2900 µM | Ki (TbAQP2/HAPT1; HAPT Ki, AVG): 2890 µM
12 | N=C(N)c1ccc(/C=C/c2ccc(C(=N)N)cc2)cc1 [Stilbamidine] | -5.81 kcal/mol | 4.37 kcal/mol | 54.8 ± 3.2 µM | Ki (TbAQP2/HAPT1; HAPT Ki, AVG): 54.8 µM
13 | N=C(N)c1ccc(OCCCCCCCOc2ccc(C(=N)N)cc2)cc1 [Heptamidine] | -9.42 kcal/mol | 0.741 kcal/mol | 0.123 ± 0.01 µM | 
14 | Cn1c([N+](=O)[O-])cnc1-c1nnc(N)s1 [megazol] |  |  |  | HAPT Ki, AVG (TbAQP2/HAPT1): NE, 250; Ki (TbAQP2/HAPT1): failed to inhibit
15 | c1cc(NC2=NCCN2)ccc1CCc1ccc(NC2=NCCN2)cc1 [FR39] | -5.98 kcal/mol | 4.21 kcal/mol | 41.7 ± 15.2 µM | 
16 | Cl.Cl.N=C(N)c1ccc(OCCOc2ccc(C(=N)N)cc2)cc1.O.O [Ethamidine, 4,4'-(ethane-1,2-diylbis(oxy))dibenzimidamide dihydrochloride dihydrate] |  | >4.71 kcal/mol | > 100 µM | δ(ΔG0) (TbAQP2/HAPT1): >4.71 kcal/mol
17 | N=C(N)c1ccc(-c2ccc(-c3ccc(C(=N)N)cn3)o2)nc1 [DB829] | -6 kcal/mol | 4.16 kcal/mol | 39.9 ± 8 µM | 
18 | N=C(N)c1ccc(OCCCCCCOc2ccc(C(=N)N)cc2)cc1 [Chainlength 6] |  |  |  | Ki (TbAQP2/HAPT1; Ki value, Mean): 0.059 µM
19 | N=C(N)c1ccc(OCCCCCCCOc2ccc(C(=N)N)cc2)cc1 [Chainlength 7] |  |  |  | Ki (TbAQP2/HAPT1; Ki value, Mean): 0.125 µM
20 | N=C(N)CCc1ccc(-c2ccc(-c3ccc(CCC(=N)N)cc3)o2)cc1 [DB1061, 3,3'-(furan-2,5-diylbis (4,1-phenylene)) dipropanimidamide dihydrochloride] | -6.12 kcal/mol | 4.04 kcal/mol | 32.3 ± 6 µM | 
21 | N=C(N)c1ccc(OCCCOc2ccc(C(=N)N)cc2)cc1 [Chainlength 3] |  |  |  | Ki (TbAQP2/HAPT1; Ki value, Mean): 7.2 µM
22 | Cn1c(-c2ccc(-c3ccc(C(=N)N)cc3)o2)nc2ccccc21 [DB960, 4-(5-(1-methyl-1H-benzo[d]imidazol-2-yl)furan-2-yl) benzimidamide dihydrochloride] | -6.52 kcal/mol | 3.66 kcal/mol | 16.6 ± 3.5 µM | 

Row | SMILES | ΔG0 (TbAQP2/HAPT1) | δ(ΔG^0) PMD (TbAQP2/HAPT1) | Ki (TbAQP2/HAPT1; Ki) | further results
23 | CC(C)[C@@H]1NC(=O)[C@H](C)OC(=O)[C@@H](C(C)C)NC(=O)[C@@H](C(C)C)OC(=O)[C@H](C(C)C)NC(=O)[C@H](C)OC(=O)[C@@H](C(C)C)NC(=O)[C@@H](C(C)C)OC(=O)[C@H](C(C)C)NC(=O)[C@H](C)OC(=O)[C@@H](C(C)C)NC(=O)[C@@H](C(C)C)OC1=O [valinomycin] |  |  |  | pentamidine uptake (s427WT bloodstream forms; valinomycin 0.3, AVG): 106.4 percentage of the uninhibited control; pentamidine uptake (s427WT bloodstream forms; valinomycin 0.3, single repeats): 108.9 percentage of the uninhibited control and 103.8 percentage of the uninhibited control; pentamidine uptake (s427WT bloodstream forms; valinomycin 1, AVG): 91.0 percentage of the uninhibited control; pentamidine uptake (s427WT bloodstream forms; valinomycin 1, single repeats): 97.7 percentage of the uninhibited control and 84.2 percentage of the uninhibited control; pentamidine uptake (s427WT bloodstream forms; valinomycin 10, AVG): 80.1 percentage of the uninhibited control; pentamidine uptake (s427WT bloodstream forms; valinomycin 10, single repeats): 86.7 percentage of the uninhibited control and 73.5 percentage of the uninhibited control
24 | N=C(N)CCc1ccc(-c2ccc(-c3ccc(CCC(=N)N)cc3)s2)cc1 [DB1063, 3,3'-(thiophene-2,5-diylbis(4,1-phenylene)) dipropanimidamide dihydrochloride] | -8.72 kcal/mol | 1.43 kcal/mol | 0.4 ± 0.1 µM | 
25 | COc1ccc(-c2ccc(-c3ccc(C(=N)N)cc3)o2)cc1 [DB607, 4-(5-(4-methoxyphenyl)furan-2-yl) benzimidamide hydrochloride] | -6.48 kcal/mol | 3.7 kcal/mol | 18.1 ± 1.9 µM | 
26 | N=C(N)c1ccc(OCCCOc2ccc(C(=O)O)cc2)cc1 [RT-38] |  | >4.71 kcal/mol | > 100 µM | HAPT Ki, AVG (TbAQP2/HAPT1): NI, 100
27 | N=C(N)c1ccc(-c2ccc(-c3ccc(C(=N)N)nc3)o2)cn1 [DB994] | -5.16 kcal/mol | 5.02 kcal/mol | 167 ± 20 µM | 
28 | Cl.Cl.N=C(N)c1ccc(OCCCOc2ccc(C(=N)N)cc2)cc1.O.O [Propamidine, 4,4’-(propane-1,3-diylbis(oxy))dibenzimidamide dihydrochloride dihydrate] | -7.07 kcal/mol | 3.11 kcal/mol | 6.63 ± 1.4 µM | 
29 | Cn1c(-c2ccc(C(=N)N)cc2)ccc1-c1ccc(C(=N)N)cc1 [DB320] | -5.66 kcal/mol | 4.52 kcal/mol | 71.3 ± 12.1 µM | 
30 | N=C(N)c1ccc(OCCCCOc2ccc(C(=N)N)cc2)cc1 [Butamidine, 4,4’-(Butane-l ,4-diylbis(oxy))dibenzimiamide dihydrochloride dihydrate] | -7.39 kcal/mol | 2.8 kcal/mol | 3.87 ± 1.38 µM | 
31 | N=C(N)c1ccc(-c2csc(-c3ccc(C(=N)N)cc3)n2)cc1 [ER1004, 4,4'-(thiazole-2,4-diyl)dibenzimidamide] | -5.69 kcal/mol | 4.49 kcal/mol | 68.7 ± 16 µM | 
32 | N=C(N)c1ccc(OCCOCCOc2ccc(C(=N)N)cc2)cc1 [DB1699] | -6.52 kcal/mol | 3.66 kcal/mol | 16.6 ± 2.1 µM | 
33 | O=c1ccc2[n+]([O-])c3ccc(O)cc3oc-2c1 [resazurin] | -5.19 kcal/mol |  |  | δ(ΔG0) (TbAQP2/HAPT1): 4.97 kcal/mol; Ki (TbAQP2/HAPT1; HAPT Ki, AVG): 155 µM
34 | N=C(N)c1ccc(OCCCCCCOc2ccc(C(=N)N)cc2)cc1 [Hexamidine] | -9.87 kcal/mol | 0.311 kcal/mol | 0.058 ± 0.011 µM | 
35 | N=C(N)c1ccc(OCCCCCOc2ccc(C(=N)N)cc2C(N)=O)c(C(N)=O)c1 [RT-46] |  | >4.71 kcal/mol | > 100 µM | Ki (TbAQP2/HAPT1): no affinity at all
36 | Cl.N=C(N)c1ccc(OCCCCOc2ccccc2)cc1.O [CHI/1/69/1, 4-(4-Phenoxybutoxy)benzimidamide hydrochloride hydrate] | -7.7 kcal/mol | 2.49 kcal/mol | 2.33 µM and 2.3 µM | 
37 | N=C(N)c1ccc(OCCCCCOc2ccc(C(=N)N)nc2)cn1 [RT-53] |  | >5.26 kcal/mol | > 250 µM | HAPT Ki, AVG (TbAQP2/HAPT1): NI, 250; Ki (TbAQP2/HAPT1): completely inactive; δ(ΔG0) (TbAQP2/HAPT1): >5.26 kcal/mol
38 | N=C(N)c1ccc(OCCCCOc2ccc(C(=N)N)cc2)cc1 [Chainlength 4] |  |  |  | Ki (TbAQP2/HAPT1; Ki value, Mean): 3.91 µM
39 | N=C(N)Nc1ccc(-c2ccc(-c3ccc(NC(=N)N)cc3)s2)cc1 [DB686] | -8.91 kcal/mol | 1.24 kcal/mol | 0.29 ± 0.11 µM | 
40 | N=C(N)c1ccc(S(=O)(=O)CCCCCS(=O)(=O)c2ccc(C(=N)N)cc2)cc1 [RT-49] |  | >4.95 kcal/mol | > 150 µM | Ki (TbAQP2/HAPT1): no binding affinity; δ(ΔG0) (TbAQP2/HAPT1): >4.95 kcal/mol
41 | CON1CCN=C1Nc1ccc(CCc2ccc(NC3=NCCN3OC)cc2)cc1 [CRMI8] | -5.83 kcal/mol | 4.33 kcal/mol | 52.8 ± 12.7 µM | 
42 | N=C(N)c1ccc(OCCCCCOc2ccc(C(=N)N)cc2)cc1 [Chainlength 5] |  |  |  | Ki (TbAQP2/HAPT1; Ki value, Mean): 0.0364 µM
43 | N=C(N)c1ccc(-c2cc3ccc(C(=N)N)cc3[nH]2)cc1 [DAPI] | -6.24 kcal/mol |  |  | δ(ΔG0) (TbAQP2/HAPT1): 3.92 kcal/mol; Ki (TbAQP2/HAPT1; read-out: HAPT Ki, AVG): 26.4 µM
